This test concerns the target T1, human LTA4 hydrolase (Homo sapiens, UniProt P09960).
T1 construct: A human LTA4 hydrolase full-length cDNA clone (NM 000895) was purchased; His tag (6xHis of vector pDEST17); made in house; host or cells: Escherichia coli BL21-AI
T1 sequence (P09960 1-611): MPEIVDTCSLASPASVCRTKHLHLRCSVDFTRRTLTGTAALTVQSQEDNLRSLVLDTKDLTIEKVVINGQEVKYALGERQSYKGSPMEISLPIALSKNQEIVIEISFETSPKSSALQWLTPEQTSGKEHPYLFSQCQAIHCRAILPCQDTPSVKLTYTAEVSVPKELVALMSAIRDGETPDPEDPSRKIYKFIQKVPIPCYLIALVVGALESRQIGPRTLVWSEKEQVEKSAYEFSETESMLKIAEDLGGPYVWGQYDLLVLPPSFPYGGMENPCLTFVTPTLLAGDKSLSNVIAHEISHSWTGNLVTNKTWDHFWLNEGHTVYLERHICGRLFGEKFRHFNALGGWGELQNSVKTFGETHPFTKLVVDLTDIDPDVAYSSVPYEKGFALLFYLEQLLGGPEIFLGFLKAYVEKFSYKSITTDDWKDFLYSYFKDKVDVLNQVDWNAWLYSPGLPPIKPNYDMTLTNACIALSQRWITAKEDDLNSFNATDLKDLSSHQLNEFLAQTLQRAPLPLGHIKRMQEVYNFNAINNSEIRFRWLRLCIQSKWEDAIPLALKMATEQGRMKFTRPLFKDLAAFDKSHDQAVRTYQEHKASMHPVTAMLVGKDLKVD
In words: In vitro assay testing inhibitory activity against purified recombinant human LTA4 hydrolase (LTB4 formed, LC-MS/MS).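 Also: 200 nM enzyme preincubated 10 min at room temperature with serial inhibitor dilutions in pH 8.0 Tris buffer with BSA and 10% DMSO, then 2 µM LTA4 added.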 The class given is biochemical. The note with it: recombinant human LTA4 hydrolase 200 nM, LTA4 2 μM; read-out: AvgIC50.

pIC50: −log10 of the molar value. Where a name gives a salt, the structure may show the parent alone.

As for `O[C@H]1CN[C@H](COc2ccc(Oc3ccccc3)cc2)C1` [Example 86, (3R,5S)-5-(4-Phenoxy-phenoxymethyl)-pyrrolidin-3-ol], the pIC50 is > 5.30.
For the compound `c1ncc(-c2ccc(Oc3ccc(OC[C@@H]4CCCN4)cc3)cc2)o1` [Example 89, 5-{4-[4-((S)-1-Pyrrolidin-2-ylmethoxy)-phenoxy]-phenyl}-oxazole], the pIC50 was > 5.30.
In the case of `Clc1ccc(COc2ccc(OC[C@H]3CCCN3)cc2)c(Cl)c1` [Example 91, (R)-2-[4-(2,4-Dichloro-benzyloxy)-phenoxymethyl]-pyrrolidine hydrogen chloride salt], the pIC50 was 4.70 to 5.30.
Consider `Fc1ccc(COc2ccc(OC[C@H]3CCCN3)cc2)cc1` [Example 92, (R)-2-[4-(4-Fluoro-benzyloxy)-phenoxymethyl]-pyrrolidine Hydrogen chloride salt], for which the pIC50 was > 5.30.
On to `Fc1ccc(COc2ccc(OC[C@H]3CCCN3)cc2)cc1F` [Example 93, (R)-2-[4-(3,4-Difluoro-benzyloxy)-phenoxymethyl]-pyrrolidine Hydrogen chloride salt], for which the pIC50 was > 5.30.
In the case of `Clc1ccc(COc2ccc(OC[C@H]3CCCN3)cc2)cc1` [Example 94, (R)-2-[4-(4-Chloro-benzyloxy)-phenoxymethyl]-pyrrolidine Hydrogen chloride salt], the pIC50 was > 5.30.
For the compound `FC(F)(F)c1ccc(COc2ccc(OC[C@H]3CCCN3)cc2)cc1` [Example 95, (R)-2-[4-(4-Trifluoromethyl-benzyloxy)-phenoxymethyl]-pyrrolidine Hydrogen chloride salt], the pIC50 is > 5.30.
For the compound `FC(F)(F)c1cccc(COc2ccc(OC[C@H]3CCCN3)cc2)c1` [Example 96, (R)-2-[4-(3-Trifluoromethyl-benzyloxy)-phenoxymethyl]-pyrrolidine Hydrogen chloride salt], the pIC50 was 4.70 to 5.30.
The result for `COc1cccc(COc2ccc(OC[C@H]3CCCN3)cc2)c1` [Example 97, (R)-2-[4-(3-Methoxy-benzyloxy)-phenoxymethyl]-pyrrolidine Hydrogen chloride salt] reads 4.00 to 4.70; that for `Clc1cc2c(cc1COc1ccc(OC[C@H]3CCCN3)cc1)OCO2` [Example 98, (R)-2-[4-(6-Chloro-benzo[1,3]dioxol-5-ylmethoxy)phenoxymethyl]pyrrolidine Hydrogen chloride salt], 4.00 to 4.70; that for `c1ccc2oc(Oc3ccc(OC[C@H]4CCCN4)cc3)nc2c1` [Example 99, (R)-2-[4-(Benzooxazol-2-yloxy)-phenoxymethyl]-pyrrolidine Hydrogen chloride salt], > 5.30.
The result for `Clc1ccc2nc(Oc3ccc(OC[C@H]4CCCN4)cc3)sc2c1` [Example 101, (R)-2-[4-(6-Chloro-benzothiazol-2-yloxy)-phenoxymethyl]-pyrrolidine-Hydrogen chloride salt] reads > 5.30.
Then `COc1ccc2nc(Oc3ccc(OC[C@H]4CCCN4)cc3)sc2c1` [Example 102, (R)-2-[4-(6-Methoxy-benzothiazol-2-yloxy)-phenoxymethyl]-pyrrolidine-Hydrogen chloride salt], with > 5.30.
Turning to `c1ccc2[nH]c(Oc3ccc(OC[C@H]4CCCN4)cc3)nc2c1` [Example 103, 2-[4-((R)-1-Pyrrolidin-2-ylmethoxy)-phenoxy]-1H-benzoimidazole Hydrogen chloride salt], the pIC50 is > 5.30.
Take `O=C(O)CCCN1CCC[C@@H]1COc1ccc(Cc2ccc(-c3ccco3)cc2)cc1` [Example 114, 4-{(R)-2-[4-(4-furan-2-yl-benzyl)-phenoxymethyl]-pyrrolidin-1-yl}-butyric acid hydrogen chloride salt]: the pIC50 was > 5.30.
The result for `Cc1ccc(-c2ccc(Cc3ccc(OC[C@H]4CCCN4CCCC(=O)O)cc3)cc2)s1` [Example 115, (R)-2-{4-[4-(5-methyl-thiophen-2-yl)-benzyl]-phenoxymethyl}-pyrrolidin-1-yl}-butyric acid hydrogen chloride salt] reads > 5.30; that for `O=C(O)CCCN1CCC[C@@H]1COc1ccc(Cc2ccc(-c3ccc(Cl)s3)cc2)cc1` [Example 116, (R)-2-{4-[4-(5-chloro-thiophen-2-yl)-benzyl]-phenoxymethyl}-pyrrolidin-1-yl}-butyric hydrogen chloride salt], > 5.30.
As for `O=C(O)CCCN1CCC[C@H]1COc1ccc(Cc2ccc(-c3cccs3)cc2)cc1` [Example 118], the pIC50 is > 5.30.
Consider `Ic1ccc(Cc2ccc(OC[C@@H]3CCCN3)cc2)cc1` [Example 121, (S)-2-[4-(4-Iodo-benzyl)-phenoxymethyl]-pyrrolidine], for which the pIC50 was > 5.30.
With `c1cc(OC[C@@H]2CCCN2)ccc1Cc1ccc(N2CCC2)cc1` [Example 124, (S)-2-[4-(4-Azetidin-1-yl-benzyl)-phenoxymethyl]-pyrrolidine hydrogen chloride salt], the pIC50 was 4.70 to 5.30.
The result for `c1cc(-c2ccc(Cc3ccc(OC[C@H]4CCCN4)cc3)cc2)ccn1` [Example 125, 4-{4-[4-((R)-1-Pyrrolidin-2-ylmethoxy)-benzyl]-phenyl}-pyridine hydrogen chloride salt] reads 4.70 to 5.30; that for `c1cncc(-c2ccc(Cc3ccc(OC[C@H]4CCCN4)cc3)cc2)c1` [Example 126, 3-{4-[4-((R)-1-Pyrrolidin-2-ylmethoxy)-benzyl]-phenyl}-pyridine], 4.70 to 5.30; that for `O=C(c1ccc(I)cc1)c1ccc(OC[C@H]2CCCN2)cc1` [Example 127, (4-Iodo-phenyl)-[4-((R)-1-pyrrolidin-2-ylmethoxy)-phenyl]-methanone], 4.70 to 5.30.
For `OC(c1ccc(OC[C@H]2CCCN2)cc1)c1ccc(-c2ccsc2)cc1` (stereo partly drawn) [Example 129, [4-((R)-1-Pyrrolidin-2-ylmethoxy)-phenyl]-(4-thiophen-3-yl-phenyl)-methanol], the pIC50 was 4.70 to 5.30.
With `c1csc(-c2ccc(Oc3ccc(OC[C@H]4CCCN4)cc3)cc2)c1` [Example 131, (R)-2-[4-(4-Thiophen-2-yl-phenoxy)-phenoxymethyl]-pyrrolidine-1-hydrogen chloride salt], the pIC50 was 4.70 to 5.30.
The result for `c1ncc(-c2ccc(Oc3ccc(OC[C@H]4CCCN4)cc3)cc2)o1` [Example 132, 5-{4-[4((R)-1-Pyrrolidin-2-ylmethoxy)-phenoxy]-phenyl}-oxazole, hydrogen chloride salt] reads 4.70 to 5.30; that for `N#CC1(c2ccc(Oc3ccc(OC[C@H]4CCCN4)cc3)cc2)CC1` [Example 136, 1-{4-[4-((R)-1-Pyrrolidin-2-ylmethoxy)-phenoxy]-phenyl}-cyclopropanecarbonitrile hydrogen chloride salt], > 5.30; that for `C[C@@H](NC(=O)CCCN1CCC[C@H]1COc1ccc(Oc2ccc(Cl)cc2)cc1)c1ccccc1` [Example 139, 4-{(S)-2-[4-(4-Chloro-phenoxy)-phenoxymethyl]-pyrrolidin-1-yl}-N—[(R)-1-phenylethyl]-butyramide], > 5.30.
Consider `c1ccc(Cc2ccc(OC[C@H]3CCCN3)nc2)cc1` [Example 141, 5-Benzyl-2-((R)-1-pyrrolidin-2-ylmethoxy)-pyridinehydrochloride salt], for which the pIC50 was > 5.30.
With `c1ccc(Cc2ccc(OC[C@@H]3CCCN3)nc2)cc1` [Example 142, 5-Benzyl-2-((S)-1-pyrrolidin-2-ylmethoxy)-pyridine hydrochloride salt], the pIC50 was > 5.30.
For the compound `c1cc(Oc2ccc(OC[C@H]3CCCN3)cc2)ccn1` [Example 144, 4-[4-((R)-1-Pyrrolidin-2-ylmethoxy)-phenoxy]-pyridine], the pIC50 was > 5.30.
Consider `O=C(O)CCN1CCC[C@@H]1COc1ccc(Oc2ccncc2)cc1` [Example 145, 3-{(R)-2-[4-(Pyridin-4-yloxy)-phenoxymethyl]-pyrrolidin-1-yl}-propionic acid], for which the pIC50 was > 5.30.
As to `c1coc(-c2ccc(Oc3ccc(OC[C@H]4CCCN4)cc3)cc2)n1` [Example 148, hydrochloride salt], the pIC50 is > 5.30.
`c1csc(-c2ccc(Cc3ccc(OC[C@H]4CCCN4)cc3)cc2)n1` [Example 149, 2-{4-[4-((R)-1-Pyrrolidin-2-ylmethoxy)-benzyl]-phenyl}-thiazole hydrochloride salt]: the pIC50 was > 5.30.
Then `c1csc(-c2ccc(Cc3ccc(OC[C@@H]4CCCN4)cc3)cc2)n1` [Example 150, 2-{4-[4-((S)-1-Pyrrolidin-2-ylmethoxy)-benzyl]-phenyl}-thiazole hydrochloride salt], with > 5.30; and `O=C(O)CCCN1CCC[C@H]1COc1ccc(Cc2ccc(-c3nccs3)cc2)cc1` [Example 151, 4-{(S)-2-[4-(4-Thiazol-2-yl-benzyl)-phenoxymethyl]-pyrrolidin-1-yl}-butylic acid hydrochloride salt], with > 5.30; and `c1coc(-c2ccc(Cc3ccc(OC[C@H]4CCCN4)cc3)cc2)n1` [Example 152, 2-{4-[4-((R)-1-Pyrrolidin-2-ylmethoxy)-benzyl]-phenyl}-oxazole], with > 5.30.

The record behind these values is patent publication US20070078263A1, “BIARYL SUBSTITUTED HETEROCYCLE INHIBITORS OF LTA4H FOR TREATING INFLAMMATION” (deCODE Chemistry, Inc., priority 2005, published 2007).
